Source: patent US20170340693A1, “DISLODGEMENT AND RELEASE OF HSC USING ALPHA 9 INTEGRIN ANTAGONIST AND CXCR4 ANTAGONIST” (COMMONWEALTH SCIENTIFIC AND INDUSTRIAL RESEARCH ORGANISATION, priority 2014, published 2017)
Structures can show the parent of a compound that is named as a salt.

Assays:
[1] = system: progenitors (LSK) and HSC (LSKSLAM) in peripheral blood; test: HSC mobilization to peripheral blood in mice; assay type: in vivo
Experimental: (§1) For mobilization experiments, all mice received subcutaneous injections at 100 μl/10 gm body weight and PB was harvested by throat bleed using EDTA coated syringes.
(a) R-BC154 (IXb) and BOP. Mice received a single injection of freshly prepared solutions of R-BC154 (IXb) and BOP in saline at the doses indicated before PB was harvested by throat bleed at the times indicated.
(b) G-CSF. Mice received G-CSF at 250 μg/kg twice daily (500 ug/kg/day), 6-8 hours apart for 4 consecutive days. Groups receiving G-CSF and BOP received the standard G-CSF regime as described above followed by a single injection of BOP 1 h prior to harvest. Control mice received an equal volume of saline.
(§2) Mice received subcutaneous injections at 100 μl/10 gm body weight of a single injection of BOP (up to 15 mg/kg) for various timeframes, a single BIO5192 injection at 1 mg/kg for 1 hour, a single AMD3100 injection at 3 mg/kg for 1 hour (mice also receiving BOP or BIO15192 were injected with a single dose of BOP or BIO15192 1 hour prior to harvest), or G-CSF at 250 μg/kg twice daily (500 μg/kg/day), 6-8 hours apart for 4 consecutive days (mice also receiving BOP and/or AMD3100 were injected with a single dose of BOP and/or AMD3100 1 h prior to harvest). Control mice received an equivalent volume of saline or 10% HPβCD/saline where appropriate.

[2] = system: human WBC and human CD34+ stem and progenitors; test: Mobilization of humanised NSG (huNSG) mice; assay type: in vivo; conditions: single dose, G-CSF multiple doses for 4-days
Excerpt: Humanised NSG mice were generated by tail vein injection of freshly sorted cord blood CD34^+ cells (>150 k) with 2×10^6 irradiated mononuclear support cells. After 4-weeks post-transplantation, NSG mice were eyebled and assessed for huCD45 and muCD45. Under these conditions, >90% humanisation was achieved as determined by flow cytometric analysis based on % huCD45 relative to total % CD45. Humanised NSG mice were given at least 1 week to recover prior to experimentation. Mice were mobilized under the relevant conditions specified in “Mobilization protocols” and PB subsequently collected by throatbleed, lysed and immunolabelled as described in “Antibody cocktails”.
as §2

[3] = system: WBC in peripheral blood; test: PB white blood cell / lymphocyte content after mobilization; assay type: in vivo, mice; conditions: for WBC counts: peripheral blood after administration
Experimental: as §1, §2

[4] = system: LPP-CFC and HPP-CFC; test: Low- and high-proliferative potential colony-forming cell assays of mobilized PB; set-up: species or system mice; conditions: mouse, in vivo
Experimental: Low- and high-proliferative potential colony-forming cells (LPP-CFC and HPP-CFC, respectively) were assayed as previously described in J. Grassinger et al Cytokine, 2012, 58, 218-225 and Bartelmez, S. H. et al Experimental hematology 17, 240-245 (1989). Briefly, mobilized PB were lysed and 4000 WBCs were plated in 35 mm Petri dishes in a double-layer nutrient agar culture system containing recombinant mouse stem cell factor and recombinant human colony-stimulating factor-1, interleukin-1α (IL-1α), and IL-3. Cultures were incubated at 37° C. in a humidified incubator at 5% O2, 10% CO2, 85% N2. LPP-CFC and HPP-CFC were enumerated at 14 days of incubation as previously described in J. Grassinger, et al (2012).

[5] = system: cord blood (CB) mononuclear cells (MNC); test: R-BC154 (IXb) binding to cord blood mononuclear cell populations, flow cytometry; assay type: cell-based, human; conditions: R-BC154 (100 nM) in the presence of excess selective α4β1 antagonist BIO5192 (1 μM) or dual α4β1/α9β1 antagonist BOP (1 μM)
Experimental: For in vitro labelling experiments, 5×10^6 BM cells from C57 mice, conditional α4^−/−/α9^−/− mice and humanised NODSCIDIL2Rγ^−/− mice and human cord blood MNCs were treated with R-BC154 (IXb) (up to 300 nM) in PBS (0.5% BSA) or TBS (0.5% BSA) containing either 1 mM CaCl2/MgCl2 (activating) or 10 mM EDTA (deactivating) at 40×10^6 cells/ml for 20 mins at 4° C. Cells were washed with cold PBS (2% FBS) and then immunolabelled as described in “Antibody Cocktails” prior to flow cytometric analysis. For in vivo experiments, C57BL/6 mice, α4^−/−/α9^−/− vav-cre mice and humanised NODSCIDIL2Rγ^−/− mice received either intravenous or subcutaneous injections of R-BC154 (IXb) (5-10 mg/kg) at 100 ul/10 gm mouse weight and analysed as described above.
(§3) For the assessment of α9β1 contribution to R-BC154 (IXb) binding, human and murine cells were stained with R-BC154 (100 nM) in the absence of competing antagonist or in the presence of excess amounts of the selective α4β1 antagonist BIO5192 (1 μM) or dual α4β1/α9β1 antagonist BOP (1 μM) in PBS containing 0.5% BSA and 1 mM CaCl2MgCl2 at 0° C. for 30 min. Cells were washed, immunolabelled as described above and analysed by flow cytometry. The contribution of α9β1 binding was calculated by measuring the difference in MFI between R-BC154 (IXb)+BIO5192 and +BOP and expressed as a % of R-BC154 (IXb) alone.

[6] = biological target: T1, α9β1 (Homo sapiens, UniProt P05556+Q13797); test: Inhibition of R-BC154 (IXb) binding, transduced LN18 cells and CHO cells, flow cytometry; set-up: species or system human and murine; conditions: R-BC154 100 nM, antagonist 1 μM, 1 mM CaCl2MgCl2, 0° C. 30 min
T1 construct: expressed in transfected cells; host or cells: LN18 (ATCC CRL-2610), retrovirally transduced; endogenous α4 silenced with pSM2c-shITGA4
T1 sequence (Q13797 30-1035): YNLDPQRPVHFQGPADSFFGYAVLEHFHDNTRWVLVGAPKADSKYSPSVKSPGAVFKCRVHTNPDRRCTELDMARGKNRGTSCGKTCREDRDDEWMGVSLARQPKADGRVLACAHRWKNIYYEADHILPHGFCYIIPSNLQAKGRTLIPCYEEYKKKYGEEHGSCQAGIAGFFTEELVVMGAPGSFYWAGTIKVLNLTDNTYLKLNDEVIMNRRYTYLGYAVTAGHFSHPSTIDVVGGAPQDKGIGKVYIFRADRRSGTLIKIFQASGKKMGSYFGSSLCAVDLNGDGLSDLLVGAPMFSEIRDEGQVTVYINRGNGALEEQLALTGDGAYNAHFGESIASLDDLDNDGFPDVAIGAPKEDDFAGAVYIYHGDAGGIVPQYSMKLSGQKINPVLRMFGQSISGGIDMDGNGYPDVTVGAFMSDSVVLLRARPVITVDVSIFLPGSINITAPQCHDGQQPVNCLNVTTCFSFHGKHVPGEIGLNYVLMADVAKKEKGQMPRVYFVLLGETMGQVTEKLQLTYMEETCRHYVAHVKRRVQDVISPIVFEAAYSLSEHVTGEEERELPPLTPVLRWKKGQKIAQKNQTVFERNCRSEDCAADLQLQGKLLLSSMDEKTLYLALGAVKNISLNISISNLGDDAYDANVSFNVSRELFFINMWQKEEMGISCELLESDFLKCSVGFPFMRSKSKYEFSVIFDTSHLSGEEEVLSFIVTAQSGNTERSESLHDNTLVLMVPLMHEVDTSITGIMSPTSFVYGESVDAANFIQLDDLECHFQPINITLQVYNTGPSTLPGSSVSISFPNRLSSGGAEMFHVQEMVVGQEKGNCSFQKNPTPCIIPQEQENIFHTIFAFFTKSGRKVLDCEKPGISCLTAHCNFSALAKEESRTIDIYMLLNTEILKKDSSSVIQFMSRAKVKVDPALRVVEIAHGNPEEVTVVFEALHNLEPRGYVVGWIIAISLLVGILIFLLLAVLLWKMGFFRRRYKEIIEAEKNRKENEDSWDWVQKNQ
T1 sequence (P05556 21-798): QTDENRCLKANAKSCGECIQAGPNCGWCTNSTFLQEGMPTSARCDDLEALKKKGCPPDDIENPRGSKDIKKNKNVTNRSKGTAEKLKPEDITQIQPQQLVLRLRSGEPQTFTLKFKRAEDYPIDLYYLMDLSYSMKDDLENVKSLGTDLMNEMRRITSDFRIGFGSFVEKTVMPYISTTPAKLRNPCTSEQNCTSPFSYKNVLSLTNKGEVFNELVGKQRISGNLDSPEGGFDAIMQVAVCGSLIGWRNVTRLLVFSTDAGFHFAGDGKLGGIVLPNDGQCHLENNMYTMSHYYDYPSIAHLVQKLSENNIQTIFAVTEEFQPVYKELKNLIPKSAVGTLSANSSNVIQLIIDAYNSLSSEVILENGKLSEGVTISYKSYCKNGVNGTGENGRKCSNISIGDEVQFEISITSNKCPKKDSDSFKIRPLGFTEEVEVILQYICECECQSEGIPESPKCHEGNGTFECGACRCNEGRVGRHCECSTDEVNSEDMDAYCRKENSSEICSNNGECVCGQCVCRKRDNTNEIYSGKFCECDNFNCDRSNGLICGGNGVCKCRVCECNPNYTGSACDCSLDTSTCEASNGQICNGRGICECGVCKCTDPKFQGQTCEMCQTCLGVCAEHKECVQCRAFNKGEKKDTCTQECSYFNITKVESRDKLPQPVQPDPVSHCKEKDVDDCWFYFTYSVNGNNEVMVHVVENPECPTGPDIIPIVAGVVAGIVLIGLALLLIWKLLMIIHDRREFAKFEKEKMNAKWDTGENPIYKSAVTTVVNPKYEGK
Experimental: as §3

[7] = biological target: α4β1 (Homo sapiens, UniProt P05556+P13612); conditions: cited from earlier work
α4β1, sequence (P13612 34-1032): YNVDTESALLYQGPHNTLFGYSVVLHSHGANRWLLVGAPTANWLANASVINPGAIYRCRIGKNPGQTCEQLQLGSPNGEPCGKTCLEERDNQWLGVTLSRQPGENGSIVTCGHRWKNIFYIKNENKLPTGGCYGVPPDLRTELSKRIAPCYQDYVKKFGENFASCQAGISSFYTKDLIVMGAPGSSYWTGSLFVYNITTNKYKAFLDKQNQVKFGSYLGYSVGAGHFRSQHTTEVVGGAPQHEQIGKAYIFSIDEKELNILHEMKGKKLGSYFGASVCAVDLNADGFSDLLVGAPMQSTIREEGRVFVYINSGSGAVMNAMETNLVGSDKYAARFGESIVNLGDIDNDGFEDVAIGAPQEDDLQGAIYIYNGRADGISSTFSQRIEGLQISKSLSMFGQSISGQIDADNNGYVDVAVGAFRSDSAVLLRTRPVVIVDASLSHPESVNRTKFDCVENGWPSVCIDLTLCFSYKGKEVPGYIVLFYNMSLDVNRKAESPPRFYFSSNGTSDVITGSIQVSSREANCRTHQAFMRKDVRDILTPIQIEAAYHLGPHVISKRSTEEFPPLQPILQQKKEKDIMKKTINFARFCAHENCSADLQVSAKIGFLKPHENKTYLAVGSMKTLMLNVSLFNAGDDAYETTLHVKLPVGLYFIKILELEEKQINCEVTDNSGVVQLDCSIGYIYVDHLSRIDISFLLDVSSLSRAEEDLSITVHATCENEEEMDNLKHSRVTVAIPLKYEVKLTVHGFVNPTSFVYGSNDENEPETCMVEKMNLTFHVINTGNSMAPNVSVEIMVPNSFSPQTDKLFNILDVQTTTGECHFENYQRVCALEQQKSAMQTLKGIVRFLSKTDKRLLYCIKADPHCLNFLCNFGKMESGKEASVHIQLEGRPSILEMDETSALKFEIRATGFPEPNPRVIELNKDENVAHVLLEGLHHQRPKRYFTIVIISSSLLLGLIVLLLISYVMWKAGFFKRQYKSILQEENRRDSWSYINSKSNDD
α4β1, sequence (P05556 21-798): as the sequence (P05556 21-798) above

[8] = system: endosteal LSK; test: In vivo BOP binding to endosteal versus central progenitors; set-up: species or system mice; conditions: mouse
Excerpt: Data is pooled from two independent experiments. n>6 (e) Analysis of in vivo BOP binding to endosteal versus central progenitors (LSK) and HSC (LSKSLAM) following the administration of BOP alone or BOP in combination with AMD3100. […] P<0.05

[9] = system: α4β1 or α9β1 LN18 cells; conditions: Pepinsky et al (2002); cited from earlier work
[10] = biological target: α4β1 integrin (Homo sapiens, UniProt P05556+P13612); test: Inhibition of integrin binding to VCAM-1 and Opn in vitro
α4β1 integrin, sequence (P13612 34-1032): as the sequence (P13612 34-1032) above
α4β1 integrin, sequence (P05556 21-798): as the sequence (P05556 21-798) above

[11] = biological target: α9β1 integrin (Homo sapiens, UniProt P05556+Q13797); test: as above
α9β1 integrin, sequence (Q13797 30-1035): as the sequence (Q13797 30-1035) above
α9β1 integrin, sequence (P05556 21-798): as the sequence (P05556 21-798) above

c1cc(CN2CCCNCCNCCCNCC2)ccc1CN1CCCNCCNCCCNCC1 [AMD3100, I,r-[I,4-Phenylenebis(methylene)]bis [1,4,8,11-tetraazacyclotetradecane]octohydrobromide dehydrate, reference compound]
increase in the proportion of progenitors (LSK cells) in the PB relative to BOP ([1]; mouse, in vivo): comparable increases | increase in PB human WBC or human CD34 stem and progenitors [2]: did not result in a significant increase | WBC counts [3]: 7.8±1.5 ×10^6/ml | HPP-CFC content of mobilized PB relative to the saline control [4]: greater | LPP-CFC content of mobilized PB relative to the saline control [4]: greater

Cc1ccccc1NC(=O)Nc1ccc(CC(=O)N(C)[C@@H](CC(C)C)C(=O)NCC[C@H](NC(=O)[C@@H]2CCCN2S(=O)(=O)c2cc(Cl)cc(Cl)c2)C(=O)O)cc1 [BIO5192, reference compound]
increases in WBC counts, progenitors (LSK) and HSC (LSKSLAM) in the PB ([1]; Intravenous administration, alone): moderate increases | inhibition of R-BC154 (IXb) binding to CB HSC and progenitors [5]: partial inhibition | inhibition of R-BC154 (IXb) binding to CB lineage committed cells [5]: complete inhibition | inhibition of R-BC154 (IXb) binding to α9β1 [6]: did not inhibit | Kd [7]: < 10 pM

O=C(O)[C@H](Cc1ccc(OC(=O)N2CCCC2)cc1)NC(=O)[C@@H]1CCCN1S(=O)(=O)c1ccccc1 [BOP, N-(Benzenesulfonyl)-L-prolyl-L-O-(1-pyrrolidinylcarbonyl)tyrosine]
binding of BOP to endosteal LSK relative to their central counterparts in vivo [8]: significantly greater binding of BOP | off-rates for α9β1 compared to α4β1 [9]: significantly reduced off-rates | inhibitory potency, α4β1 binding to VCAM-1 and Opn [10]: nanomolar inhibitory potencies | inhibitory potency, α9β1 binding to VCAM-1 and Opn [11]: nanomolar inhibitory potencies | time of peak PB HSC ([1]; mouse, in vivo): 1 h | increase in the proportion of HSC (LSKSLAM cells) in the PB relative to AMD3100 ([1]; p<0.05): significantly greater increase | increase in PB progenitors (LSK) and HSC (LSKSLAM) ([1]; single agent, single dose): rapid, significant and dose dependent increase | return of PB progenitors and HSC to baseline post-administration ([1]; single dose): ≤ 4 h | time of peak PB progenitors and HSC after a single dose ([1]; subcutaneous): 60 min | increase in PB human WBC or human CD34 stem and progenitors [2]: did not result in a significant increase | inhibition of R-BC154 (IXb) binding to all CB cell populations [5]: complete inhibition | WBC counts [3]: 7.0±0.8 ×10^6/ml | total PB lymphocytes decreased to baseline ([3]; single dose): ≤ 18 h | inhibition of R-BC154 (IXb) binding to α9β1 [6]: > 95% | HPP-CFC content of mobilized PB relative to the saline control [4]: greater | LPP-CFC content of mobilized PB relative to the saline control [4]: greater

B1: G-CSF: recombinant granulocyte-colony stimulating factor (protein, UniProt P09919 31-207, looked up)
Granulocyte …: TPLGPASSLPQSFLLKCLEQVRKIQGDGAALQEKLVSECATYKLCHPEELVLLGHSLGIPWAPLSSCPSQALQLAGCLSQLHSGLFLYQGLLQALEGISPELGPTLDTLQLDVADFATTIWQQMEELGMAPALQPTQGAMPAFASAFQRRAGGVLVASHLQSFLEVSYRVLRHLAQP
progenitors mobilized, G-CSF alone versus single dose of BOP and AMD3100 ([1]; 4-days of G-CSF): significantly greater number of progenitors | increase in PB human WBC or human CD34 stem and progenitors [2]: did not result in a significant increase
